Test results reported in US20130065818A1, “Arylamide Compounds And Compositions And Uses Thereof” (POLYMEDIX, priority 2006, published 2013).
Values after ≈ are worked out from the molar mass of the structure shown. Read-outs that look alike come from different tables or passages of the source.

What was measured:
Serratia marcescens = experiment: MIC, 25 ocular isolates, broth microdilution (Example 8); format: cell-based
Procedure: (§1) • Mueller-Hinton Broth in tubes was inoculated with 25 ocular isolates of Staphylococcus aureus fluoroquinolone-susceptible, Staphylococcus aureus fluoroquinolone-resistant, Staphylococcus epidermidis (Coagulase-negative Staphylococcus) fluoroquinolone-susceptible, Staphylococcus epidermidis (Coagulase-negative Staphylococcus) fluoroquinolone-resistant, Pseudomonas aeruginosa and Serratia marcescens, plus two controls (Staphylococcus aureus and E. coli) and incubated at 37° C. overnight on a shaker set at 250 rpm.
(§2) On the day of testing, a 640 μg/ml (1280 μg/ml for Serratia marcescens and Pseudomonas aeruginosa) concentration was prepared from a 1% stock solution in 0.01% acetic acid, 0.2% BSA in polypropylene tubes.
(§3) Serial doubling dilutions in 0.01% acetic acid, 0.2% BSA in 96 well polypropylene plates, which are used as reservoirs for the inoculation of the test plates, were carried out to obtain serial dilutions of test agents at 10 times the required test concentrations: 640, 320, 160, 80, 40, 20, 10, 5, 2.5, 1.25, and 0.625 μg/ml (1280, 640, 320, 160, 80, 40, 20, 10, 5, 2.5, and 1.25 μg/ml for Serratia marcescens and Pseudomonas aeruginosa).
(§4) Ten μl of diluted 10×test agents was added to each well of one row of the 96 well polypropylene plates from column 2 to column 12 (column 1 is a control for bacteria alone, with no peptide). Test agent concentrations in columns 2-12 were as follows: 64, 32, 16, 8, 4, 2, 1, 0.5, 0.25, 0.125, and 0.0625 μg/ml (128, 64, 32, 16, 8, 4, 2, 1, 0.5, 0.25, and 0.125 μg/ml for Serratia marcescens and Pseudomonas aeruginosa). The same peptide was in each of the 8 rows. One plate contained dilutions of one test agent and 8 bacterial isolates.
(§5) On the day of testing, the overnight bacterial broth cultures of Staphylococcus aureus fluoroquinolone-susceptible, Staphylococcus aureus fluoroquinolone-resistant, Staphylococcus epidermidis (Coagulase-negative Staphylococcus) fluoroquinolone-susceptible, Staphylococcus epidermidis (Coagulase-negative Staphylococcus) fluoroquinolone-resistant, Serratia marcescens, and Pseudomonas aeruginosa, plus two controls (Staphylococcus aureus and E. coli) were diluted in 5 ml of trypticase soy broth to yield turbidity equal to a 0.5 McFarland standard. The final inoculum for MIC testing for Staphylococcus aureus fluoroquinolone-susceptible, Staphylococcus aureus fluoroquinolone-resistant, Staphylococcus epidermidis (Coagulase-negative Staphylococcus) fluoroquinolone-susceptible, Staphylococcus epidermidis (Coagulase-negative Staphylococcus) fluoroquinolone-resistant, Serratia marcescens, and Pseudomonas aeruginosa was achieved by placing 0.05 ml of the turbidity adjusted sample to 5 ml of Mueller-Hinton broth.
(§6) Ninety μl of the bacterial suspensions was dispensed in each well from column 1 to column 12. Each bacterial isolate was placed in one row of a 96 well polypropylene plate containing the test agents. The plates were placed on shaker at 15 minutes at room temperature, and then incubated at 37° C. overnight. MICs were determined visually as the lowest concentration of drug that inhibits visible bacterial growth.

Pseudomonas aeruginosa = experiment: as above; format: cell-based
Procedure: as §1, §2, §3, §4, §5, §6

[1] = 25 isolates, Summary of Results, >128 was Replaced with 256

## N=C(N)NCCCCC(=O)Nc1cc(C(F)(F)F)cc(NC(=O)c2cc(C(=O)Nc3cc(C(F)(F)F)cc(NC(=O)CCCCNC(=N)N)c3O[C@@H]3CCNC3)ncn2)c1O[C@@H]1CCNC1 [Oligomer 4]
Serratia marcescens; 25 isolates, Row 13, >128 was Replaced with 256
  MIC50: 8 µg/mL (≈ 8.54 µM)
Serratia marcescens; 25 isolates, Row 22, >128 was Replaced with 256
  MIC90: 32 µg/mL (≈ 34.2 µM)
Serratia marcescens; [1]
  Range of MICs: 0.25 to 32 µg/mL
Serratia marcescens; Serratia marcescens, 25 ocular isolates, read-out: Median MIC
  MIC: 8 µg/mL (≈ 8.54 µM)
Serratia marcescens; Serratia marcescens, isolate 1—K1681, read-out: MIC
  MIC: 32 µg/mL (≈ 34.2 µM)
Serratia marcescens; Serratia marcescens, isolate 2—K1674, read-out: MIC
  MIC: 32 µg/mL (≈ 34.2 µM)
Serratia marcescens; Serratia marcescens, isolate 3—K1558, read-out: MIC
  MIC: 4 µg/mL (≈ 4.27 µM)
Serratia marcescens; Serratia marcescens, isolate 4—K1538, read-out: MIC
  MIC: 16 µg/mL (≈ 17.1 µM)
Serratia marcescens; Serratia marcescens, isolate 5—K1503, read-out: MIC
  MIC: 32 µg/mL (≈ 34.2 µM)
Serratia marcescens; Serratia marcescens, isolate 6—K1216, read-out: MIC
  MIC: 4 µg/mL (≈ 4.27 µM)
Serratia marcescens; Serratia marcescens, isolate 7—K1496, read-out: MIC
  MIC: 8 µg/mL (≈ 8.54 µM)
Serratia marcescens; Serratia marcescens, isolate 8—K1481, read-out: MIC
  MIC: 2 µg/mL (≈ 2.13 µM)
Serratia marcescens; Serratia marcescens, isolate 9—K1470, read-out: MIC
  MIC: 32 µg/mL (≈ 34.2 µM)
Serratia marcescens; Serratia marcescens, isolate 10—K1468, read-out: MIC
  MIC: 2 µg/mL (≈ 2.13 µM)
Serratia marcescens; Serratia marcescens, isolate 11—K1467, read-out: MIC
  MIC: 32 µg/mL (≈ 34.2 µM)
Serratia marcescens; Serratia marcescens, isolate 12—K1462, read-out: MIC
  MIC: 16 µg/mL (≈ 17.1 µM)
Serratia marcescens; Serratia marcescens, isolate 13—K1461, read-out: MIC
  MIC: 8 µg/mL (≈ 8.54 µM)
Serratia marcescens; Serratia marcescens, isolate 14—K1413, read-out: MIC
  MIC: 16 µg/mL (≈ 17.1 µM)
Serratia marcescens; Serratia marcescens, isolate 15—K1402, read-out: MIC
  MIC: 0.25 µg/mL (≈ 0.267 µM)
Serratia marcescens; Serratia marcescens, isolate 16—K1357, read-out: MIC
  MIC: 1 µg/mL (≈ 1.07 µM)
Serratia marcescens; Serratia marcescens, isolate 17—K1351, read-out: MIC
  MIC: 0.5 µg/mL (≈ 0.534 µM)
Serratia marcescens; Serratia marcescens, isolate 18—K1327, read-out: MIC
  MIC: 8 µg/mL (≈ 8.54 µM)
Serratia marcescens; Serratia marcescens, isolate 19—K1321, read-out: MIC
  MIC: 8 µg/mL (≈ 8.54 µM)
Serratia marcescens; Serratia marcescens, isolate 20—K1315, read-out: MIC
  MIC: 16 µg/mL (≈ 17.1 µM)
Serratia marcescens; Serratia marcescens, isolate 21—K1306, read-out: MIC
  MIC: 8 µg/mL (≈ 8.54 µM)
Serratia marcescens; Serratia marcescens, isolate 22—K1290, read-out: MIC
  MIC: 8 µg/mL (≈ 8.54 µM)
Serratia marcescens; Serratia marcescens, isolate 23—K1265, read-out: MIC
  MIC: 8 µg/mL (≈ 8.54 µM)
Serratia marcescens; Serratia marcescens, isolate 24—K1263, read-out: MIC
  MIC: 8 µg/mL (≈ 8.54 µM)
Serratia marcescens; Serratia marcescens, isolate 25—K1239, read-out: MIC
  MIC: 8 µg/mL (≈ 8.54 µM)
Serratia marcescens; Serratia marcescens, n=25 per group, read-out: Median MIC
  MIC: 8 µg/mL (≈ 8.54 µM)
Serratia marcescens; Serratia marcescens, 25 isolates, Summary of Results, >128 was Replaced with 256, read-out: MIC50
  MIC50: 8 µg/mL (≈ 8.54 µM)
Serratia marcescens; Serratia marcescens, 25 isolates, Summary of Results, >128 was Replaced with 256, read-out: MIC90
  MIC90: 32 µg/mL (≈ 34.2 µM)
Serratia marcescens; Serratia marcescens, 25 isolates, Summary of Results, >128 was Replaced with 256, read-out: Median MIC
  MIC: 8 µg/mL (≈ 8.54 µM)
Serratia marcescens; n=25 per group
  MIC50: 8 µg/mL (≈ 8.54 µM)
  MIC90: 32 µg/mL (≈ 34.2 µM)
  Range of MICs: 0.25 to 32 µg/mL
Pseudomonas aeruginosa; 25 isolates, Row 13
  MIC50: 4 µg/mL (≈ 4.27 µM)
Pseudomonas aeruginosa; [1]
  Range of MICs: 0.5 to 8 µg/mL
Pseudomonas aeruginosa; Pseudomonas aeruginosa, 25 ocular isolates, read-out: Median MIC
  MIC: 4 µg/mL (≈ 4.27 µM)
Pseudomonas aeruginosa; Pseudomonas aeruginosa, isolate 1—K1673, read-out: MIC
  MIC: 2 µg/mL (≈ 2.13 µM)
Pseudomonas aeruginosa; Pseudomonas aeruginosa, isolate 2—K1668, read-out: MIC
  MIC: 2 µg/mL (≈ 2.13 µM)
Pseudomonas aeruginosa; Pseudomonas aeruginosa, isolate 3—K1662, read-out: MIC
  MIC: 2 µg/mL (≈ 2.13 µM)
Pseudomonas aeruginosa; Pseudomonas aeruginosa, isolate 4—K1657, read-out: MIC
  MIC: 2 µg/mL (≈ 2.13 µM)
Pseudomonas aeruginosa; Pseudomonas aeruginosa, isolate 5—K1651, read-out: MIC
  MIC: 4 µg/mL (≈ 4.27 µM)
Pseudomonas aeruginosa; Pseudomonas aeruginosa, isolate 6—K1649, read-out: MIC
  MIC: 4 µg/mL (≈ 4.27 µM)
Pseudomonas aeruginosa; Pseudomonas aeruginosa, isolate 7—K1564, read-out: MIC
  MIC: 8 µg/mL (≈ 8.54 µM)
Pseudomonas aeruginosa; Pseudomonas aeruginosa, isolate 8—K1636, read-out: MIC
  MIC: 0.5 µg/mL (≈ 0.534 µM)
Pseudomonas aeruginosa; Pseudomonas aeruginosa, isolate 9—K1634, read-out: MIC
  MIC: 2 µg/mL (≈ 2.13 µM)
Pseudomonas aeruginosa; Pseudomonas aeruginosa, isolate 10—K1633, read-out: MIC
  MIC: 4 µg/mL (≈ 4.27 µM)
Pseudomonas aeruginosa; Pseudomonas aeruginosa, isolate 11—K1632, read-out: MIC
  MIC: 4 µg/mL (≈ 4.27 µM)
Pseudomonas aeruginosa; Pseudomonas aeruginosa, isolate 12—K1631, read-out: MIC
  MIC: 8 µg/mL (≈ 8.54 µM)
Pseudomonas aeruginosa; Pseudomonas aeruginosa, isolate 13—K1629, read-out: MIC
  MIC: 4 µg/mL (≈ 4.27 µM)
Pseudomonas aeruginosa; Pseudomonas aeruginosa, isolate 14—K1627, read-out: MIC
  MIC: 2 µg/mL (≈ 2.13 µM)
Pseudomonas aeruginosa; Pseudomonas aeruginosa, isolate 15—K1626, read-out: MIC
  MIC: 8 µg/mL (≈ 8.54 µM)
Pseudomonas aeruginosa; Pseudomonas aeruginosa, isolate 16—K1625, read-out: MIC
  MIC: 4 µg/mL (≈ 4.27 µM)
Pseudomonas aeruginosa; Pseudomonas aeruginosa, isolate 17—K1562, read-out: MIC
  MIC: 4 µg/mL (≈ 4.27 µM)
Pseudomonas aeruginosa; Pseudomonas aeruginosa, isolate 18—K1613, read-out: MIC
  MIC: 4 µg/mL (≈ 4.27 µM)
Pseudomonas aeruginosa; Pseudomonas aeruginosa, isolate 19—K1553, read-out: MIC
  MIC: 2 µg/mL (≈ 2.13 µM)
Pseudomonas aeruginosa; Pseudomonas aeruginosa, isolate 20—K1594, read-out: MIC
  MIC: 2 µg/mL (≈ 2.13 µM)
Pseudomonas aeruginosa; Pseudomonas aeruginosa, isolate 21—K1588, read-out: MIC
  MIC: 4 µg/mL (≈ 4.27 µM)
Pseudomonas aeruginosa; Pseudomonas aeruginosa, isolate 22—K1554, read-out: MIC
  MIC: 4 µg/mL (≈ 4.27 µM)
Pseudomonas aeruginosa; Pseudomonas aeruginosa, isolate 23—K1580, read-out: MIC
  MIC: 2 µg/mL (≈ 2.13 µM)
Pseudomonas aeruginosa; Pseudomonas aeruginosa, isolate 24—K1577, read-out: MIC
  MIC: 2 µg/mL (≈ 2.13 µM)
Pseudomonas aeruginosa; Pseudomonas aeruginosa, isolate 25—K1576, read-out: MIC
  MIC: 4 µg/mL (≈ 4.27 µM)
Pseudomonas aeruginosa; Pseudomonas aeruginosa, n=25 per group, read-out: Median MIC
  MIC: 4 µg/mL (≈ 4.27 µM)
Pseudomonas aeruginosa; Pseudomonas aeruginosa, 25 isolates, Summary of Results, read-out: MIC50
  MIC50: 4 µg/mL (≈ 4.27 µM)
Pseudomonas aeruginosa; Pseudomonas aeruginosa, 25 isolates, Summary of Results, read-out: MIC90
  MIC90: 4 µg/mL (≈ 4.27 µM)
Pseudomonas aeruginosa; Pseudomonas aeruginosa, 25 isolates, Summary of Results, read-out: Median MIC
  MIC: 4 µg/mL (≈ 4.27 µM)
Pseudomonas aeruginosa; n=25 per group
  MIC50: 4 µg/mL (≈ 4.27 µM)
  MIC90: 4 µg/mL (≈ 4.27 µM)
  Range of MICs: 0.5 to 8 µg/mL
